Measured values as given in publication PMC8647500 (Molecular Brain, 2021).
Counter-ions that a name gives are not always drawn. Values belong to the molecule of their own block, whether it stands above or below them.

Assays:
R-GenGAR-DA1.2 [1] = biological target: T1, R-GenGAR-DA1.2 (Homo sapiens, UniProt P21728); experiment: Dual-color time-lapse imaging in rat primary hippocampal neurons co-expressing DA1.2 and NE1m, red channel; assay type: cell-based
Method: (§1) Primary cultures of rat hippocampal neurons were prepared similarly to that described previously. Female pregnant Wistar/ST rats (total 8 rats) arrived from Japan SLC on the day of the experiment. A pregnant rat with embryonic rats (embryonic days 19) was killed by CO2 inhalation and then embryos (10 embryos per pregnant rat) were removed and decapitated. […] To dissociate hippocampal neurons, hippocampi were treated with 10 units/ml papain (LS003126, Worthington Biochemical) for 10 min at 37 °C. […] Half of the medium was removed and replaced with fresh medium every 7 days.
(§2) Stock solutions for the compounds were dissolved in the appropriate vehicle, and a volume from 0.95 to 1 µl was prepared in each 1.5-ml microcentrifuge tube. […]
(§3) We used Fiji, a distribution of ImageJ [44], for the preparation of quantification and measurement of all imaging files. […] In order to normalize the fluorescence changes with the amount of biosensor expression, ΔF/F0 was calculated using the intensity before the compound application. […] The image of fluorescence change (ΔF/F0) was represented as the pseudocolor intensity-modulated display mode, where color represents the relative ratio value, whilst the brightness of the color represented the fluorescence intensity of the source images. […]

R-GenGAR-DA1.2 [2] = biological target: T1, R-GenGAR-DA1.2; settings: HeLa cells, all compounds 10 µM
R-GenGAR-DA1.2 [3] = biological target: T1, R-GenGAR-DA1.2; settings: rat primary hippocampal neurons
R-GenGAR-DA1.2 [4] = biological target: T1, R-GenGAR-DA1.2; experiment: Dual-color time-lapse imaging in HeLa cells co-expressing DA1.2 and NE1m, red channel; assay type: cell-based
Method: (§4) Stock solutions for the compounds were dissolved in the appropriate vehicle, and a volume from 0.95 to 1 µl was prepared in each 1.5-ml microcentrifuge tube. Compounds were mixed with 0.5 ml imaging buffer from the well and applied to the same well at each time point during imaging (Additional file 1: Fig. S4b). For temperature equilibration of the imaging buffer, 0.5 ml of the imaging buffer was transferred from the well into an empty 1.5-ml microcentrifuge tube and then applied to the buffer in the same well; this procedure repeated 5 times (Additional file 1: Fig. S4c). The procedure for the compound application in the time-lapse imaging is shown in Additional file 1: Fig. S5. The ‘ligand’ dissolved in the appropriate vehicle was applied at the imaging time point shown by the arrow; the ‘vehicle’ was applied at the same time point.
as §3

GRABNE1m [5] = experiment: Dual-color time-lapse imaging in HeLa cells co-expressing DA1.2 and NE1m, green channel; assay type: cell-based; settings: for NE1m fluorescence response to ligand: NE 1 µM then DA 5 µM
Method: as §4
We used Fiji, a distribution of ImageJ [44], for the preparation of quantification and measurement of all imaging files. Principally, for all images, the background was subtracted, and images were registered by StackReg (http://bigwww.epfl.ch/thevenaz/stackreg/), a Fiji plugin to correct misregistration, if required. Note that the median filter was used for the time-lapse images of the neuron before registration to remove camera noise preventing registration. Then, regions of interests (ROIs) were selected for the first time point in time-lapse imaging or in the images before the compound application, to surround the whole cell body for HeLa cells and a dendrite near the cell body for hippocampal neurons. […] In order to normalize the fluorescence changes with the amount of biosensor expression, ΔF/F0 was calculated using the intensity before the compound application. For the time-lapse experiments, the value used for F0 was the mean intensity before compound application. The image of fluorescence change (ΔF/F0) was represented as the pseudocolor intensity-modulated display mode, where color represents the relative ratio value, whilst the brightness of the color represented the fluorescence intensity of the source images. […]

GRABNE1m [6] = experiment: Dual-color time-lapse imaging in rat primary hippocampal neurons co-expressing DA1.2 and NE1m, green channel; assay type: cell-based
Method: as §1, §2, §3

T1 sequence (P21728 with tags, fused parts or gaps): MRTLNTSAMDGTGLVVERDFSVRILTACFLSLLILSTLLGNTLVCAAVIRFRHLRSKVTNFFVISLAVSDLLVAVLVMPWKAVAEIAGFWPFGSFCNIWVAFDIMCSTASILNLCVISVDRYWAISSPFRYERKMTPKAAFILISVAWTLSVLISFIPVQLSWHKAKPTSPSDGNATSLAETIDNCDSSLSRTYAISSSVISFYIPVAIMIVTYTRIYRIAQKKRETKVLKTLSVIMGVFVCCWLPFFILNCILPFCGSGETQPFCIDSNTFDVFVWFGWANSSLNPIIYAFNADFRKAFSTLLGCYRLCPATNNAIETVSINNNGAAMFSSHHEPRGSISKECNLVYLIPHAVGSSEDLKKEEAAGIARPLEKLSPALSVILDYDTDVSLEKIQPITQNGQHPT
T1 sequence (Q9U6Y8 with tags, fused parts or gaps partner): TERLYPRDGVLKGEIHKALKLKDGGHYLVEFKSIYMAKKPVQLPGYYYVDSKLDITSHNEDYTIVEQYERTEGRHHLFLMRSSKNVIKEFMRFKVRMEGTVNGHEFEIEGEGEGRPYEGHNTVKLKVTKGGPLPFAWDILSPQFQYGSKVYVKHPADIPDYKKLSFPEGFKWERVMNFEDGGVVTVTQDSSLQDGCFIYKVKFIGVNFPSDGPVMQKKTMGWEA

effect of antagonist on DA1.2 response to DA (R-GenGAR-DA1.2 [1]; SCH 5 µM): restored
effect of antagonist on the response of DA1.2 to DA (R-GenGAR-DA1.2 [2]): blocked
effect of antagonist applied after DA on DA1.2 fluorescence (R-GenGAR-DA1.2 [3]; SCH 5 µM after DA 5 µM): restored to baseline
effect of antagonist pretreatment on response of DA1.2 to DA (R-GenGAR-DA1.2 [3]; SCH before DA): completely suppressed
effect of antagonist on DA1.2 response to DA (R-GenGAR-DA1.2 [4]; SCH 5 µM): blocked
Structure (SMILES): CN1CCc2cc(Cl)c(O)cc2[C@@H](c2ccccc2)C1 [SCH, R( +)-SCH 23390 hydrochloride]

Structure (SMILES): NCCc1ccc(O)c(O)c1 [DA, Dopamine]
NE1m fluorescence response to ligand (GRABNE1m [5]): not DA

Structure (SMILES): COC(=O)[C@@H]1[C@H]2C[C@H]3c4[nH]c5ccccc5c4CCN3C[C@@H]2CC[C@@H]1O [YO, yohimbine hydrochloride]
effect of antagonist on NE1m fluorescence response (GRABNE1m [6]; YO 1 µM): blocked
effect of antagonist on NE1m fluorescence response (GRABNE1m [5]; YO 1 µM): recovered to its basal level

Structure (SMILES): NC[C@H](O)c1ccc(O)c(O)c1 [NE, L-noradrenaline bitartrate monohydrate]
DA1.2 fluorescence response to ligand (R-GenGAR-DA1.2 [1]; NE 1 µM then DA 5 µM): not NE
NE1m fluorescence response to ligand (GRABNE1m [6]; NE 1 µM): increase in NE1m green fluorescence
NE1m fluorescence response to ligand (GRABNE1m [5]): increase in green fluorescence
DA1.2 fluorescence response to ligand (R-GenGAR-DA1.2 [4]; NE 1 µM then DA 5 µM): not to NE
